# Reference: ChEMBL document CHEMBL2086323, “Anti-adipogenic chromone glycosides from Cnidium monnieri fruits in 3T3-L1 cells” (2012)
# Active and inactive are the calls of the source. The rule behind the calls is not given here.
# How the values were obtained:
# 3T3-L1 [1] = experiment: Inhibition of adipogenesis in mouse 3T3L1 cells assessed as fat accumulation at 300 uM after 8 days by oil red O-staining based by ELISA plate reader; assay type: functional; details: 3T3-L1, 192 h
# 3T3-L1 [2] = experiment: Inhibition of adipogenesis in mouse 3T3L1 cells assessed as fat accumulation at 100 uM after 8 days by oil red O-staining based by ELISA plate reader; assay type: functional; details: 3T3-L1, 192 h
# 3T3-L1 [3] = experiment: Inhibition of adipogenesis in mouse 3T3L1 cells assessed as fat accumulation at 300 uM after 2 to 8 days by oil red O-staining based by ELISA plate reader; assay type: functional, cell-based
# 3T3-L1 [4] = experiment: Inhibition of adipogenesis in mouse 3T3L1 cells assessed as fat accumulation at 300 uM after 2 to 4 days by oil red O-staining based by ELISA plate reader; assay type: functional, cell-based
# 3T3-L1 [5] = experiment: Inhibition of adipogenesis in mouse 3T3L1 cells assessed as fat accumulation at 300 uM after 4 to 8 days by oil red O-staining based by ELISA plate reader; assay type: functional, cell-based
# 3T3-L1 [6] = experiment: Inhibition of adipogenesis in mouse 3T3L1 cells assessed as fat accumulation at 300 uM up to 4 days by oil red O-staining based by ELISA plate reader; assay type: functional, cell-based
# 3T3-L1 [7] = experiment: Inhibition of adipogenesis in mouse 3T3L1 cells assessed as fat accumulation at 300 uM up to 2 days by oil red O-staining based by ELISA plate reader; assay type: functional, cell-based
Compound,inhibition at 300 µM (3T3-L1 [1]),also measured
Cc1cc(=O)c2c(O)cc(O[C@@H]3O[C@H](CO)[C@@H](O)[C@H](O)[C@H]3O)cc2o1 [UNDULATOSIDE A],88.5%,–
C=C(C)C(Cc1c(O)cc2oc(CO)cc(=O)c2c1O)O[C@@H]1O[C@H](CO)[C@@H](O)[C@H](O)[C@H]1O (stereo partly drawn) [MONNIERISIDE D],85.5%,–
C=C(C)C1Cc2c(cc3oc(CO)cc(=O)c3c2O)O1 (stereo not drawn) [UMTATIN],89.4%,–
C/C(=C/Cc1c(O[C@@H]2O[C@H](CO)[C@@H](O)[C@H](O)[C@H]2O)cc2oc(CO)cc(=O)c2c1O)CO [MONNIERISIDE B],68.9%,–
C=C(C)C(O)Cc1c(O[C@@H]2O[C@H](CO)[C@@H](O)[C@H](O)[C@H]2O)cc2oc(CO)cc(=O)c2c1O (stereo partly drawn) [MONNIERISIDE E],82.2%,–
C/C(=C/Cc1c(O)cc2oc(C)cc(=O)c2c1O)CO[C@@H]1O[C@H](CO)[C@@H](O)[C@H](O)[C@H]1O [CNIDIMOSIDE A],75%,–
C=C(C)C1Cc2c(cc3oc(CO[C@@H]4O[C@H](CO)[C@@H](O)[C@H](O)[C@H]4O)cc(=O)c3c2O)O1 (stereo partly drawn) [MONNIERISIDE F],97.1%,–
Oc1ccc(/C=C/c2cc(O)cc(O)c2)cc1 [RESVERATROL],–,inhibition at 100 µM (3T3-L1 [2]): 19.4%
C/C(=C/Cc1c(O)cc2oc(CO)cc(=O)c2c1O)CO[C@@H]1O[C@H](CO)[C@@H](O)[C@H](O)[C@H]1O [HYDROXYCNIDIMOSIDE A],73.1%,–
COc1cc2oc(C)cc(=O)c2c(O)c1C/C=C(/C)CO[C@@H]1O[C@H](CO)[C@@H](O)[C@H](O)[C@H]1O [CNIDIMOSIDE B],14.7%,inhibition (3T3-L1 [3]): Active; inhibition (3T3-L1 [4]): Active; inhibition (3T3-L1 [5]): Active; inhibition (3T3-L1 [6]): Active; inhibition (3T3-L1 [7]): Active
C/C(=C/Cc1c(O[C@@H]2O[C@H](CO)[C@@H](O)[C@H](O)[C@H]2O)cc2oc(C)cc(=O)c2c1O)CO,87%,–
C=C(C)C(Cc1c(O)cc2oc(C)cc(=O)c2c1O)O[C@@H]1O[C@H](CO)[C@@H](O)[C@H](O)[C@H]1O (stereo partly drawn) [MONNIERISIDE C],79.9%,–
Cc1cc(=O)c2c(O)c3c(cc2o1)OC(C(C)(C)O[C@@H]1O[C@H](CO)[C@@H](O)[C@H](O)[C@H]1O)C3 (stereo partly drawn) [MONNIERISIDE G],99.7%,–
